Reference: ChEMBL document CHEMBL1177809, “Motualevic acids and analogs: synthesis and antimicrobial structure-activity relationships” (2010)
Converted amounts (≈) assume the structure as drawn. The source made the active and inactive calls. The calls are words filed in the database; no cut-off is given here.

Experiments:
Enterococcus faecium [1] = assay: Antibacterial activity against Enterococcus faecium by microbroth dilution assay; format: functional
Enterococcus faecium [2] = assay: Antibacterial activity against Enterococcus faecium at 5 ug/disk by agar disk diffusion assay; format: functional; details: read-out: IZ
Enterococcus [3] = assay: Antibacterial activity against vancomycin-resistant Enterococcus by microbroth dilution assay; format: functional
Staphylococcus aureus [4] = assay: Antibacterial activity against methicillin-resistant Staphylococcus aureus at 50 ug/disk by agar disk diffusion assay; format: functional; details: for zone of inhibition at 50 µg/disc: read-out: IZ
Staphylococcus aureus [5] = assay: Antibacterial activity against Staphylococcus aureus at 50 ug/disk by agar disk diffusion assay; format: functional; details: for zone of inhibition at 50 µg/disc: read-out: IZ
Staphylococcus aureus [6] = assay: Antibacterial activity against Staphylococcus aureus by microbroth dilution assay; format: functional
Enterococcus [7] = assay: Antibacterial activity against vancomycin-resistant Enterococcus at 5 ug/disk by agar disk diffusion assay; format: functional; details: read-out: IZ
Staphylococcus aureus [8] = assay: Antibacterial activity against methicillin-resistant Staphylococcus aureus by microbroth dilution assay; format: functional
Enterococcus [9] = assay: Antibacterial activity against vancomycin-resistant Enterococcus at 25 ug/disk by agar disk diffusion assay; format: functional; details: read-out: IZ
Staphylococcus aureus [10] = assay: Antibacterial activity against methicillin-resistant Staphylococcus aureus at 25 ug/disk by agar disk diffusion assay; format: functional; details: read-out: IZ
Enterococcus faecium [11] = assay: Antibacterial activity against Enterococcus faecium at 25 ug/disk by agar disk diffusion assay; format: functional; details: read-out: IZ
Staphylococcus aureus [12] = assay: Antibacterial activity against Staphylococcus aureus at 25 ug/disk by agar disk diffusion assay; format: functional; details: read-out: IZ
Enterococcus [13] = assay: Antibacterial activity against vancomycin-resistant Enterococcus at 10 ug/disk by agar disk diffusion assay; format: functional; details: read-out: IZ
Enterococcus faecium [14] = assay: Antibacterial activity against Enterococcus faecium at 50 ug/disk by agar disk diffusion assay; format: functional, organism-based
Enterococcus [15] = assay: Antibacterial activity against vancomycin-resistant Enterococcus at 50 ug/disk by agar disk diffusion assay; format: functional, organism-based
Staphylococcus aureus [16] = assay: Antibacterial activity against methicillin-resistant Staphylococcus aureus at 10 ug/disk by agar disk diffusion assay; format: functional; details: read-out: IZ
Staphylococcus aureus [17] = assay: Antibacterial activity against Staphylococcus aureus at 10 ug/disk by agar disk diffusion assay; format: functional; details: read-out: IZ
Enterococcus faecium [18] = assay: Antibacterial activity against Enterococcus faecium at 10 ug/disk by agar disk diffusion assay; format: functional; details: read-out: IZ

Row | Compound | MIC (Enterococcus faecium [1]) | MIC (Enterococcus [3]) | inhibition zone (IZ) (Staphylococcus aureus [5]) | MIC (Staphylococcus aureus [6]) | MIC (Staphylococcus aureus [8]) | zone of inhibition at 25 µg/disc (Enterococcus [9]) [mm] | zone of inhibition at 25 µg/disc (Staphylococcus aureus [10]) [mm] | zone of inhibition at 25 µg/disc (Enterococcus faecium [11]) [mm] | zone of inhibition at 25 µg/disc (Staphylococcus aureus [12]) [mm] | inhibition zone (IZ) (Staphylococcus aureus [4]) | also measured
1 | O=C(/C=C/CCCCCCCCCC=C(Br)Br)N[C@@H](Cc1ccccc1)C(=O)O | 6.3 µg/mL (≈ 11.9 µM) | 2.9 µg/mL (≈ 5.48 µM) | inactive | 5 µg/mL (≈ 9.45 µM) | 4.4 µg/mL (≈ 8.31 µM) |  |  |  |  |  | zone of inhibition at 5 µg/disc (Enterococcus faecium [2]): 8 mm; zone of inhibition at 50 µg/disc (Staphylococcus aureus [4]): 8 mm; zone of inhibition at 5 µg/disc (Enterococcus [7]): 8 mm
2 | O=C(O)[C@H]1CCCN1C(=O)/C=C/CCCCCCCCCC=C(Br)Br | 15 µg/mL (≈ 31.3 µM) | 11 µg/mL (≈ 23 µM) |  | 18 µg/mL (≈ 37.6 µM) | 19 µg/mL (≈ 39.6 µM) | 8 | 8 | 8 | 8 |  | zone of inhibition at 10 µg/disc (Enterococcus [13]): 8 mm
3 | O=C(O)CN(CC(=O)O)C(=O)/C=C/CCCCCCCCCC=C(Br)Br | inactive | inactive |  | inactive | inactive |  |  |  |  |  | inhibition zone (IZ) (Enterococcus faecium [14]): inactive; zone of inhibition at 50 µg/disc (Staphylococcus aureus [4]): 8 mm; zone of inhibition at 50 µg/disc (Staphylococcus aureus [5]): 8 mm; inhibition zone (IZ) (Enterococcus [15]): inactive
4 | CCC/C=C/C(=O)NCC(=O)O |  |  | inactive |  |  |  |  |  |  | inactive | 
5 | O=C(O)CCNC(=O)/C=C/CCCCCCCCCC=C(Br)Br | 11 µg/mL (≈ 24.3 µM) | 12 µg/mL (≈ 26.5 µM) |  | 3.6 µg/mL (≈ 7.94 µM) | 3.3 µg/mL (≈ 7.28 µM) | 8 |  | 8 |  |  | zone of inhibition at 10 µg/disc (Staphylococcus aureus [16]): 8 mm; zone of inhibition at 10 µg/disc (Staphylococcus aureus [17]): 8 mm; zone of inhibition at 10 µg/disc (Enterococcus [13]): 8 mm
6 | O=C(/C=C/CCCCCCCCCC=C(Br)Br)N[C@H](C(=O)O)c1ccccc1 | 25 µg/mL (≈ 48.5 µM) | 22 µg/mL (≈ 42.7 µM) |  | 17 µg/mL (≈ 33 µM) | 21 µg/mL (≈ 40.8 µM) | 8 | 8 |  | 8 |  | zone of inhibition at 10 µg/disc (Enterococcus faecium [18]): 8 mm; zone of inhibition at 10 µg/disc (Enterococcus [13]): 8 mm
7 | O=C(O)CNC(=O)/C=C/CCCCCCCCCC=C(Br)Br [MOTUALEVIC ACID A] | 9.3 µg/mL (≈ 21.2 µM) | 12 µg/mL (≈ 27.3 µM) |  | 11 µg/mL (≈ 25 µM) | 9.3 µg/mL (≈ 21.2 µM) | 8 |  | 8 |  |  | zone of inhibition at 10 µg/disc (Staphylococcus aureus [16]): 8 mm; zone of inhibition at 10 µg/disc (Staphylococcus aureus [17]): 8 mm; zone of inhibition at 10 µg/disc (Enterococcus [13]): 8 mm
8 | O=C(O)CNC(=O)/C=C/CCC=C(Br)Br |  |  | inactive |  |  |  |  |  |  | inactive | 
9 | NC(=O)CNC(=O)/C=C/CCCCCCCCCC=C(Br)Br |  |  | inactive |  |  |  |  |  |  | inactive | 
10 | O=C(O)[C@@H]1C[C@H](O)CN1C(=O)/C=C/CCCCCCCCCC=C(Br)Br |  |  | inactive |  |  | 8 | 8 | 8 |  |  | 
11 | CN(C)C(=O)CNC(=O)/C=C/CCCCCCCCCC=C(Br)Br |  |  | inactive |  |  |  |  |  |  | inactive | 
12 | C[N+](C)(C)CCNC(=O)/C=C/CCCCCCCCCC=C(Br)Br.[Cl-] | 3.7 µg/mL | 5.2 µg/mL |  | 2.4 µg/mL | 4.2 µg/mL | 8 |  | 8 |  |  | zone of inhibition at 10 µg/disc (Staphylococcus aureus [16]): 8 mm; zone of inhibition at 10 µg/disc (Staphylococcus aureus [17]): 8 mm
13 | O=C(O)[C@@H]1CCCN1C(=O)/C=C/CCCCCCCCCC=C(Br)Br | 10 µg/mL (≈ 20.9 µM) | 12 µg/mL (≈ 25 µM) |  | 10 µg/mL (≈ 20.9 µM) | 9 µg/mL (≈ 18.8 µM) |  |  | 8 | 8 |  | zone of inhibition at 10 µg/disc (Staphylococcus aureus [16]): 8 mm; zone of inhibition at 5 µg/disc (Enterococcus [7]): 8 mm
14 | O=C(O)/C=C/CCCCCCCCCC=C(Br)Br [MOTUALEVIC ACID E] |  |  |  |  |  |  |  |  |  | inactive | zone of inhibition at 50 µg/disc (Staphylococcus aureus [5]): 8 mm
15 | O=C(O)CCCCCCCNC(=O)/C=C/CCC=C(Br)Br |  |  |  |  |  |  | 8 |  | 8 |  | 
16 | CCCCCCCCC/C=C/C(=O)NCC(=O)O |  |  | inactive |  |  |  |  |  |  | inactive | 
17 | O=C(O)CNC(=O)/C=C/CCCCCCCC=C(Br)Br |  |  |  |  |  |  |  |  |  |  | zone of inhibition at 50 µg/disc (Staphylococcus aureus [4]): 8 mm; zone of inhibition at 50 µg/disc (Staphylococcus aureus [5]): 8 mm
18 | CC(C)C[C@H](NC(=O)/C=C/CCCCCCCCCC=C(Br)Br)C(=O)O | 6.4 µg/mL (≈ 12.9 µM) | 3.7 µg/mL (≈ 7.47 µM) |  | 2.3 µg/mL (≈ 4.64 µM) | 2.9 µg/mL (≈ 5.86 µM) |  | 8 |  | 8 |  | zone of inhibition at 10 µg/disc (Enterococcus faecium [18]): 8 mm; zone of inhibition at 5 µg/disc (Enterococcus [7]): 8 mm
19 | O=C(O)CCCNC(=O)/C=C/CCCCCCCCCC=C(Br)Br | 11 µg/mL (≈ 23.5 µM) | 8.5 µg/mL (≈ 18.2 µM) |  | 2.5 µg/mL (≈ 5.35 µM) | 2.4 µg/mL (≈ 5.14 µM) | 8 | 8 |  | 8 |  | zone of inhibition at 10 µg/disc (Enterococcus faecium [18]): 8 mm; zone of inhibition at 10 µg/disc (Enterococcus [13]): 8 mm
20 | O=C(O)C[C@H](NC(=O)/C=C/CCCCCCCCCC=C(Br)Br)C(=O)O | inactive | inactive | inactive | inactive | inactive |  |  |  |  |  | inhibition zone (IZ) (Enterococcus faecium [14]): inactive; inhibition zone (IZ) (Enterococcus [15]): inactive
